The test system of this experiment is male spontaneously hypertensive rats. The experiment can be described thus: Decrease in systolic blood pressure in spontaneously hypertensive rats after intravenous bolus injection, indirect (tail-cuff) method. The experiment is classed as in vivo, rat. The conditions noted are these: for Decrease in systolic blood pressure (mmHg) time after administration (hour) 0.5: 0.5 hour after administration; for Decrease in systolic blood pressure (mmHg) time after administration (hour) 4: 4 hours after administration. Here is the method: As test animals, four male spontaneously hypertensive rats (weight 400 to 440 g) that were sufficiently adapted for feeding and in which hypertension was confirmed were used.
Physiological saline aqueous solution containing 2.5% Nicolle and 2.5% ethanol of sample was intravenously administered by bolus injection at a dose of 1 ml per 1 kg of body weight. Systolic blood pressure after administration was measured by the indirect (tail-cuff) method.

Take `CC(=O)Nc1ccc(C=CCN2CCC(=C3c4ccccc4C=Cc4ccccc43)CC2)cc1.Cl.Cl` [Example 232, 1-(4-Acetylaminocinnamyl)-4-(5H-dibenzo[a,d]cyclohepten-5-ylidene)piperidine dihydrochloride]: where the note is “dose 1 mg/kg i.v. bolus”, the “Decrease in systolic blood pressure (mmHg) time after administration (hour) 0.5” value (“Decrease in systolic blood pressure … (hour) 0.5” for short) is listed as −92 mmHg and the “Decrease in systolic blood pressure (mmHg) time after administration (hour) 4” value (shortened to “Decrease in systolic blood pressure … (hour) 4”) is −85 mmHg.
Regarding `Cl.O=C(CCCN1CCC(=C2c3ccccc3C=Cc3ccccc32)CC1)c1ccco1` [Example 233, 4-(4-(5H-Dibenzo[a,d]cyclohepten-5-ylidene)-1-piperidinyl)-1-(2-furyl)-1-butanone hydrochloride], under “dose 10 mg/kg i.v. bolus”, the “Decrease in systolic blood pressure … (hour) 0.5” value was −35 mmHg and the “Decrease in systolic blood pressure … (hour) 4” value is reported as −1 mmHg.
`Cl.O=C(CCCN1CCC(=C2c3ccccc3C=Cc3ccccc32)CC1)c1cccs1` [Example 234, 4-(4-(5H-Dibenzo[a,d]cyclohepten-5-ylidene)-1-piperidinyl)-1-(2-thienyl)-1-butanone hydrochloride]: under “dose 10 mg/kg i.v. bolus”, the “Decrease in systolic blood pressure … (hour) 0.5” value is listed as −96 mmHg and the “Decrease in systolic blood pressure … (hour) 4” value is given as −2 mmHg.
Take `C1=Cc2ccccc2C(=C2CCN(CCCOC3CCCCO3)CC2)c2ccccc21.Cl` (centres unmarked) [Example 235, 3-(4-(5H-Dibenzo[a,d]cyclohepten-5-ylidene)-1-piperidinyl)-1-propyl(2-tetrahydropyranyl)ether hydrochloride]: under “dose 10 mg/kg i.v. bolus”, the “Decrease in systolic blood pressure … (hour) 0.5” value is −99 mmHg and the “Decrease in systolic blood pressure … (hour) 4” value is reported as −5 mmHg.
On the same counts, the results for `Cl.O=C(CCN1CCC(=C2c3ccccc3C=Cc3ccccc32)CC1)OC1CCCCC1` [Example 236, Cyclohexyl 3-(4-(5H-Dibenzo[a,d]cyclohepten-5-ylidene)-1-piperidinyl)propionate hydrochloride] are −10 mmHg and −15 mmHg.
On the same counts, the results for `Cl.O=C(NCCN1CCCCC1=C1c2ccccc2C=Cc2ccccc21)c1ccc([N+](=O)[O-])cc1` [Example 237, N-(2-(5H-Dibenzo[a,d]cyclohepten-5-ylidene)-1-piperidinyl)ethyl-4-nitrobenzamide hydrochloride] are −65 mmHg and −14 mmHg.
On to `O=C(O)C(CCN1CCC(=C2c3ccccc3C=Cc3ccccc32)CC1)C1CCCCC1` (centres unmarked) [Example 238, 2-Cyclohexyl-4-(4-(5H-dibenzo[a,d]cyclohepten-5-ylidene)-1-piperidinyl)butyric acid], for which, where the note is “dose 10 mg/kg i.v. bolus”, the “Decrease in systolic blood pressure … (hour) 0.5” value was −14 mmHg and the “Decrease in systolic blood pressure … (hour) 4” value was −5 mmHg.
`Cl.[O-][S+](CCCN1CCC(=C2c3ccccc3C=Cc3ccccc32)CC1)c1ccccc1` (centres unmarked) [Example 239, 3-(4-(5H-Dibenzo[a,d]cyclohepten-5-ylidene)-1-piperidinyl)-1-propyl phenylsulphoxide hydrochloride]: under “dose 10 mg/kg i.v. bolus”, the “Decrease in systolic blood pressure … (hour) 0.5” value is reported as −68 mmHg and the “Decrease in systolic blood pressure … (hour) 4” value is on record as −15 mmHg.
For the molecule `COc1cc2c(cc1OC)CC(CCN1CCC(=C3c4ccccc4C=Cc4ccccc43)CC1)C2.Cl` [Example 240], where the note is “dose 3 mg/kg i.v. bolus”, the “Decrease in systolic blood pressure … (hour) 0.5” value is −118 mmHg and the “Decrease in systolic blood pressure … (hour) 4” value is given as −5 mmHg.
`Cl.O=S(=O)(CCCN1CCC(=C2c3ccccc3C=Cc3ccccc32)CC1)c1ccccc1` [Example 241, 3-(4-(5H-Dibenzo[a,d]cyclohepten-5-ylidene)-1-piperidinyl)-1-propyl phenylsulphone hydrochloride]: under “dose 10 mg/kg i.v. bolus”, the “Decrease in systolic blood pressure … (hour) 0.5” value was −73 mmHg and the “Decrease in systolic blood pressure … (hour) 4” value is −4 mmHg.
With `COc1ccc(C(=O)NCCN2CCC(=C3c4ccccc4C=Cc4ccccc43)CC2)cc1OC.Cl` [Example 242, N-(2-(5H-Dibenzo[a,d]cyclohepten-5-ylidene)-1-piperidinyl)ethyl-3′,4′-dimethoxybenzamide hydrochloride], for the setting “dose 10 mg/kg i.v. bolus”, the “Decrease in systolic blood pressure … (hour) 0.5” value was −28 mmHg and the “Decrease in systolic blood pressure … (hour) 4” value is reported as 7 mmHg.
For `Cl.O=C(NCCN1CCCCC1=C1c2ccccc2C=Cc2ccccc21)C1CCCCC1` [Example 243, N-(2-(5H-Dibenzo[a,d]cyclohepten-5-ylidene)-1-piperidinyl)ethyl cyclohexanecarboxamide hydrochloride], in that order: −111 mmHg and −31 mmHg.
For `Cl.O=C(CCCN1CCC(=C2c3ccccc3C=Cc3ccccc32)CC1)N1CCOCC1` [Example 245, 1-(4-(4-(5H-Dibenzo[a,d]cyclohepten-5-ylidene)-1-piperidinyl)butanoyl)morpholine hydrochloride], in that order: −34 mmHg and −10 mmHg.
In the case of `CC(CC(=O)N1CCSCC1)N1CCC(=C2c3ccccc3C=Cc3ccccc32)CC1.Cl` (centres unmarked) [Example 246], for the setting “dose 10 mg/kg i.v. bolus”, the “Decrease in systolic blood pressure … (hour) 0.5” value is −34 mmHg and the “Decrease in systolic blood pressure … (hour) 4” value is recorded as −4 mmHg.
For `Cl.O=[N+]([O-])c1ccc(CCCN2CCC(=C3c4ccccc4C=Cc4ccccc43)CC2)cc1` [Example 247, 3-(4-(5H-Dibenzo[a,d]cyclohepten-5-ylidene)-1-piperidinyl)-1-(4-notrophenyl)propane hydrochloride], in that order: −119 mmHg and −40 mmHg.
On to `Cl.Cl.Nc1ccc(CCCN2CCC(=C3c4ccccc4C=Cc4ccccc43)CC2)cc1` [Example 248, 1-(4-Aminophenyl)-3-(4-(5H-Dibenzo[a,d]cyclohepten-5-ylidene)-1-piperidinyl)propane dihydrochloride], for which, for the setting “dose 10 mg/kg i.v. bolus”, the “Decrease in systolic blood pressure … (hour) 0.5” value is reported as −101 mmHg and the “Decrease in systolic blood pressure … (hour) 4” value is reported as −92 mmHg.
As for `CC(=O)Nc1ccc(CCCN2CCC(=C3c4ccccc4C=Cc4ccccc43)CC2)cc1.Cl.Cl` [Example 249, 1-(4-Acetylaminophenyl)-3-(4-(5H-Dibenzo[a,d]cyclohepten-5-ylidene)-1-piperidinyl)propane dihydrochloride], under “dose 10 mg/kg i.v. bolus”, the “Decrease in systolic blood pressure … (hour) 0.5” value is −121 mmHg and the “Decrease in systolic blood pressure … (hour) 4” value is listed as −100 mmHg.
On to `Cl.O=[N+]([O-])c1ccccc1CCCN1CCC(=C2c3ccccc3C=Cc3ccccc32)CC1` [Example 250, 3-(4-(5H-Dibenzo[a,d]cyclohepten-5-ylidene)-1-piperidinyl)-1-(2-nitrophenyl)propane hydrochloride], for which, under “dose 10 mg/kg i.v. bolus”, the “Decrease in systolic blood pressure … (hour) 0.5” value is recorded as −136 mmHg and the “Decrease in systolic blood pressure … (hour) 4” value is listed as −30 mmHg.
For `Cl.Cl.Nc1ccccc1CCCN1CCC(=C2c3ccccc3C=Cc3ccccc32)CC1` [Example 251, 1-(2-Aminophenyl)-3-(4-(5H-Dibenzo[a,d]cyclohepten-5-ylidene)-1-piperidinyl)propane dihydrochloride], in that order: −110 mmHg and −24 mmHg.
As for `CC(=O)Nc1ccccc1CCCN1CCC(=C2c3ccccc3C=Cc3ccccc32)CC1.Cl.Cl` [Example 252, 1-(2-Acetylaminophenyl)-3-(4-(5H-Dibenzo[a,d]cyclohepten-5-ylidene)-1-piperidinyl)propane dihydrochloride], where the note is “dose 10 mg/kg i.v. bolus”, the “Decrease in systolic blood pressure … (hour) 0.5” value is −23 mmHg and the “Decrease in systolic blood pressure … (hour) 4” value is −5 mmHg.
For the molecule `Cl.O=[N+]([O-])c1ccccc1CCCCN1CCC(=C2c3ccccc3C=Cc3ccccc32)CC1` [Example 255, 4-(4-(5H-Dibenzo[a,d]cyclohepten-5-ylidene)-1-piperidinyl)-1-(2-nitrophenyl)butane hydrochloride], for the setting “dose 10 mg/kg i.v. bolus”, the “Decrease in systolic blood pressure … (hour) 0.5” value is −62 mmHg and the “Decrease in systolic blood pressure … (hour) 4” value is listed as 2 mmHg.
As to `CCOC(=O)C(CCN1CCC(=C2c3ccccc3C=Cc3ccccc32)CC1)CC1CCCCC1.Cl` (centres unmarked) [Example 259, Ethyl 2-cyclohexylmethyl-4-(4-(5H-dibenzo[a,d]cyclohepten-5-ylidene)-1-piperidinyl)butyrate hydrochloride], for the setting “dose 10 mg/kg i.v. bolus”, the “Decrease in systolic blood pressure … (hour) 0.5” value is −46 mmHg and the “Decrease in systolic blood pressure … (hour) 4” value is recorded as −5 mmHg.
For `CC(=O)NC1CCC(CCCCN2CCC(=C3c4ccccc4C=Cc4ccccc43)CC2)CC1.Cl` (centres unmarked) [Example 260, 1-(4-acetylamino-1-cyclohexyl)-4-(4-(5H-dibenzo[a,d]cyclohepten-5-ylidene)-1-piperidinyl)butane hydrochloride], in that order: −51 mmHg and −10 mmHg.
Consider `CCOC(=O)C(CCC1CCCCC1)CN1CCC(=C2c3ccccc3C=Cc3ccccc32)CC1.Cl` (centres unmarked) [Example 262], for which, under “dose 10 mg/kg i.v. bolus”, the “Decrease in systolic blood pressure … (hour) 0.5” value was −16 mmHg and the “Decrease in systolic blood pressure … (hour) 4” value is −3 mmHg.
On the same counts, the results for `COc1cc2nc(N3CCC(=C4c5ccccc5C=Cc5ccccc54)CC3)nc(N)c2cc1OC.Cl.Cl` [Example 266, 2-(4-(5H-Dibenzo[a,d]cyclohepten-5-ylidene)-1-piperidinyl)-4-amino-6,7-dimethoxyquinazoline dihydrochloride] are −133 mmHg and −77 mmHg.

Source of the values: patent USRE38257E1, “Piperdine derivatives and hypotensives containing the same” (Ajinomoto Co., Inc., priority 1988, dated 2003).
